Ends that are not written are not given here.
Biological target: T1, BRPF1 bromodomain (Homo sapiens, UniProt P55201)
T1 sequence (P55201 629-742): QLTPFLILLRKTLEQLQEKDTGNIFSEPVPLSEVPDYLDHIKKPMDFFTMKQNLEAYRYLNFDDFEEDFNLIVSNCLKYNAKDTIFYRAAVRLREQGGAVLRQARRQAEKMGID
Assay: biochemical
Assay type: binding
Settings: SD

For LGKGGAK(Ac)RHRK [H4K16ac (10–20)], the Kd was 518 ± 92.1 µM.
